Assay results published in patent publication US9795656B2, “Treatment of ocular diseases” (MARLYN NUTRACEUTICALS INC, priority 2006, dated 2017).
Entries after “also recorded” stand apart in the source; their conditions may differ.

Assays:
HUVEC [1] = experiment: MTT assay with treated HUVEC (antiproliferative activity); format: cell-based, Human; conditions: for inhibition of VEGF stimulated proliferation (MTT): VEGF stimulated HUVEC, FIG. 5; for inhibition of VEGF stimulated proliferation (MTT) / % growth (MTT) / antiproliferative effect (MTT), in words: 48 hours; for % growth (MTT): at concentrations as low as 25 μg/ml; for antiproliferative effect (MTT), in words: concentration-response
Procedure: The antiproliferative activity of bromelain, nattokinase and papain and their mixtures was assessed using an 3-(4,5-dimethylthiazol-2-yl)-2,5-diphenyltetrazoliumbromide (MTT) assay. […] Cells were incubated further 48 hours at 37° C./95% humidity. The MTT Assay was carried out using an EZ4U MTT Kit (Biomedica, Austria; according to the instructions of the manufacturer). Optical density was measured at 450 nm with a reference wavelength of 620 nm. Results are expressed as % proliferation with 100% being the proliferation of the VEGF treated control.
To assess a possible antiproliferative activity of Rutosid an 3-(4,5-dimethylthiazol-2-yl)-2,5-diphenyltetrazoliumbromide (MTT) Assay was used. […] Cells were incubated further 48 hours at 37° C./95% humidity. The MTT-Assay was carried out using a EZ4U MTT Kit (Biomedica, Austria) according to the instructions of the manufacturer) Optical density was measured at 450 nm with a reference wavelength of 620 nm. Results are expressed as % proliferation with 100% being the proliferation of the VEGF treated control.

HUVEC [2] = system: HUVEC
Procedure: (§1) The antiproliferative activity of bromelain, nattokinase and papain was assessed using a Lactate Dehydrogenase (LDH) Assay. Human Umbilical Vein Endothelial Cells (HUVEC) from semi-confluent cultures were harvested by treatment with trypsin, seeded at a density of 2500 cells/well into 96-well microplates, previously coated with human fibronectin. In oder to allow proper attachment, cells were incubated for 24 hours in Endothelial Basal medium 2MV (Cambrex Biochemicals) containing 10% Fetal Calf Serum, 60 μg/ml Endothelial cell Growth Supplement, hrEGF, hrFGF2, hrIGF, hrVEGF, Ascorbic Acid and Heparin. After attachment, cells were starved by incubation at 37° C./95% humidity in Medium 199+10% Fetal Calf Serum (FCS) without growth factors. After 24 hours, the supernatant was replaced by Medium 199 containing 10% FCS, VEGF and varying concentrations of the enzymes. After an incubation period of 48 hours, supernatant was harvested and an LDH assay was performed according to the instructions of the manufacturer (Promega, Germany): 50 μl aliquots from all wells were transferred to a fresh 96-well flat-bottom (enzymatic assay) plate. The Assay Buffer was added to the Substrate Mix and mixed gently. 50 μl of reconstituted Substrate Mix was added to each well. The plate was incubated for 30 minutes at room temperature. 50 μl of Stop Solution was added to each well. Within one hour, optical density was measured at 490 nm with a reference wavelength of 620 nm. Results are expressed as % untreated control.
(§2) To test a possible cytotoxic activity of rutosid an Lactate Dehydrogenase (LDH) Assay was used. Human Umbilical Vein Endothelial Cells (HUVEC) from semi-confluent cultures were harvested by treatment with trypsin, seeded at a density of 2500 cells/well into 96-well microplates, previously coated with human fibronectin. In oder to allow proper attachment, cells were incubated for 24 hours in Endothelial Basal medium 2MV (Cambrex Biochemicals) containing 10% Fetal Calf Serum, 60 μg/ml Endothelial cell Growth Supplement, hrEGF, hrFGF-2, hrIGF, hrVEGF, ascorbic acid and heparin. After attachment, cells were starved by incubation at 37° C./95% humidity in Medium 199+10% Fetal Calf Serum (FCS) without growth factors. After 24 hours, the supernatant was replaced by Medium 199 containing 10% FCS, VEGF and varying concentrations of the enzymes. After an incubation period of 48 hours, supernatant was harvested and an LDH assay was performed according to the instructions of the manufacturer (Promega, Germany): 50 μl aliquots from all wells where transferred to a fresh 96-well flat-bottom (enzymatic assay) plate. […] Within one hour, optical density was measured at 490 nm with a reference wavelength of 620 nm. Results are expressed as % untreated control.

HUVEC [3] = experiment: Tube formation assay on Matrigel (antiangiogenic activity); format: cell-based, Human; conditions: for inhibition of VEGF induced tube formation: FIG. 3, FIG. 7 right; for inhibition of spontaneous tube formation: no VEGF, FIG. 7 left; for ability to inhibit or prevent angiogenesis: general statement on proteases of mammalian origin
Procedure: Methods: Antiangiogenic activity was assessed using a tube formation assay. Growth factor reduced Matrigel (Becton Dickinson, Vienna) was thawed at a temperature of 4° C. 50 μl per well were pipetted into the wells of a 96 well microtiter plate. The plate was left at 4° C. for 24 hours. Prior to the experiment, the plate was incubated for 30-60 minutes at 37° C. to solidify the gel. HUVEC were harvested by treatment with trypsin and seeded into Matrigel coated 96 well microplates at a density of 20.000 cells per well in Endothelial Growth Medium 2(MV) (Lonza, Brussels) supplemented with ascorbic acid and hydrocortisone according to the instructions of the manufacturer as well as […] heparin and 1% Fetal Bovine Serum. Drugs and VEGF were added to the desired concentrations. After further 16 hrs to 18, wells were photographed. The total length of tubes was determined using the ImageJ Software, measured by the Neuron Length Determination Plugin.

HUVEC [4] = experiment: LDH release into supernatant of treated HUVEC (toxicity test); conditions: up to a level of including 25 μg/ml; 2 days of incubation
Procedure: as §1, §2

## C[C@@H]1O[C@@H](OC[C@H]2O[C@@H](Oc3c(-c4ccc(O)c(O)c4)oc4cc(O)cc(O)c4c3=O)[C@H](O)[C@@H](O)[C@@H]2O)[C@H](O)[C@H](O)[C@H]1O [Rutosid]
HUVEC [1]
  inhibition of VEGF stimulated proliferation (MTT): No inhibition of proliferation
HUVEC [1]; listed as rutosid
  inhibition of VEGF stimulated proliferation (MTT): does not inhibit
HUVEC [2]
  toxicity in HUVEC (LDH), overall: negligible

## Bromelain
HUVEC [1]; 100% = VEGF treated control
  % growth (MTT): 75%
HUVEC [1]
  antiproliferative effect (MTT), in words: clear antiproliferative effect
HUVEC [3]
  inhibition of VEGF induced tube formation: inhibited formation of tubes almost to the same extend as in untreated HUVEC
  inhibition of spontaneous tube formation: inhibited formation of tubes
HUVEC [3]; listed as bromelain
  inhibition of VEGF induced tube formation: significant decrease
HUVEC [4]
  toxic effects on HUVEC (LDH release): did not show toxic effects

## Nattokinase
HUVEC [1]
  antiproliferative effect (MTT), in words: clear antiproliferative effect
HUVEC [3]
  inhibition of VEGF induced tube formation: significant decrease; also recorded: inhibited formation of tubes almost to the same extend as in untreated HUVEC
  inhibition of spontaneous tube formation: inhibited formation of tubes
HUVEC [4]
  toxic effects on HUVEC (LDH release): did not show toxic effects

## chymotrypsin [reference compound]
HUVEC [3]
  inhibition of VEGF induced tube formation: but not chymotrypsin or trypsin inhibited formation of tubes
  ability to inhibit or prevent angiogenesis: not able to inhibit or prevent angiogenesis
  inhibition of spontaneous tube formation: but not chymotrypsin or trypsin inhibited formation of tubes

## ficin
HUVEC [3]
  inhibition of VEGF induced tube formation: significant decrease; also recorded: inhibited formation of tubes almost to the same extend as in untreated HUVEC
  inhibition of spontaneous tube formation: inhibited formation of tubes

## serrapeptase
HUVEC [3]
  inhibition of VEGF induced tube formation: significant decrease; also recorded: inhibited formation of tubes almost to the same extend as in untreated HUVEC
  inhibition of spontaneous tube formation: inhibited formation of tubes

## trypsin [reference compound]
HUVEC [3]
  inhibition of VEGF induced tube formation: but not chymotrypsin or trypsin inhibited formation of tubes
  ability to inhibit or prevent angiogenesis: not able to inhibit or prevent angiogenesis
  inhibition of spontaneous tube formation: but not chymotrypsin or trypsin inhibited formation of tubes

B1: Papain (protein, UniProt P00784 134-345, looked up)
Papain: IPEYVDWRQKGAVTPVKNQGSCGSCWAFSAVVTIEGIIKIRTGNLNEYSEQELLDCDRRSYGCNGGYPWSALQLVAQYGIHYRNTYPYEGVQRYCRSREKGPYAAKTDGVRQVQPYNEGALLYSIANQPVSVVLEAAGKDFQLYRGGIFVGPCGNKVDHAVAAVGYGPNYILIKNSWGTGWGENGYIRIKRGTGNSYGVCGLYTSSFYPVKN
HUVEC [1]; 100% = VEGF treated control
  % growth (MTT): 75%
HUVEC [1]; combinations of bromelain, nattokinase and papain in presence of VEGF, 100% = VEGF treated control
  % Proliferation: 75.45%
HUVEC [1]
  antiproliferative effect (MTT), in words: clear antiproliferative effect
HUVEC [3]
  inhibition of VEGF induced tube formation: significant decrease; also recorded: inhibited formation of tubes almost to the same extend as in untreated HUVEC
  inhibition of spontaneous tube formation: inhibited formation of tubes
HUVEC [3]; in presence of VEGF, 100% = samples treated with VEGF only
  % tube formation: 60.14%
HUVEC [4]
  toxic effects on HUVEC (LDH release): did not show toxic effects
